Laboratory results from the NIST ThermoML archive (doi:10.1016/j.tca.2015.05.023).
± gives the expanded uncertainty stated by the source.

Tests used:
[1] = Crystal; DTA
[2] = Molar enthalpy of transition or fusion; conditions: Crystal; DSC

With `O=[N+]([O-])[O-].[Na+]` [sodium nitrate] the Triple point temperature [1] was 581.15 ± 1 K and the “Molar enthalpy of transition or fusion” value [2] was 3.84 ± 0.122 kcal/mol.
